Measured values taken from US11400107B2, “Cancer treatments” (NuCana plc, priority 2016, dated 2022).
Entries after “also recorded” stand apart in the source; their conditions may differ.

Test system: advance progressive cancers refractory to, or relapsed on, all conventional therapies
Experiment: ProGem1 dose escalation clinical study of NUC-1031
Type: in vivo, human
Design: CA125 level: unit not given here
Excerpt: The following data were generated in clinical studies of NUC-1031 in human patients with advance progressive cancers that are refractory to, or have relapsed on, all conventional therapies that have been used to date. The results clearly illustrate the ability of NUC-1031 to successfully treat refractory cancers.
Although the primary objectives of the dose escalation part of the study were to determine the Recommended Phase II Dose (RP2D) and safety profile, secondary objectives included determining the PK profile, however effective treatment of patients with a range of refractory cancers has also been observed as part of this study.
A total of 68 patients have been entered into this dose escalation study, of which 49 were evaluable for clinical response in that they have received at least 2 Cycles of NUC-1031 and were therefore eligible for a RECIST 1.1 assessment.
NUC-1031 was administered as a 5 to 30 minute intravenous slow bolus injection. • Schedule A: NUC-1031 was administered on days 1, 8, 15 of a 4 weekly Cycle. • Schedule B: NUC-1031 was administered on days 1, 5, 8, 12, 15, 19, of a 4 weekly Cycle. Evaluable Patients [n=49]
Evaluable patients were patients that received ≥2 Cycles of NUC-1031 and were therefore eligible for a RECIST 1.1 assessment at the end of Cycle 2. Where the disease response duration, measured in months, is followed by a “+” this indicates ongoing disease control as of the latest cut-off date.

[1] = Patient 004, breast cancer, 500 mg/m^2 weekly
[2] = Patient 005, ovarian cancer, 500 mg/m^2 weekly
[3] = Patient 006, cholangiocarcinoma, 375 mg/m^2 twice weekly, then 500 mg/m^2
[4] = Patient 007, colorectal cancer, 375 mg/m^2 twice weekly, then 500 mg/m^2 weekly
[5] = Patient 008, cancer of unknown primary, 375 mg/m^2 twice weekly
[6] = Patient 010, endometrial cancer, 750 then 500 mg/m^2 weekly
[7] = Patient 011, uterine carcinosarcoma, 375 mg/m^2 twice weekly
[8] = Patient 011, uterine carcinosarcoma, 375 mg/m^2 twice weekly, then 625 mg/m^2 weekly
[9] = Patient 012, cholangiocarcinoma, 375 mg/m^2 twice weekly, then 625 mg/m^2 weekly
[10] = Patient 013, cervical cancer, 750, 625, then 500 mg/m^2 weekly
[11] = Patient 017, lung cancer, 750 then 625 mg/m^2 weekly
[12] = Patient 018, lung cancer, 625 mg/m^2 weekly
[13] = Patient 021, fallopian tube cancer, 625 mg/m^2 weekly
[14] = Patient 025, mesothelioma, 725 mg/m^2 weekly
[15] = Patient 026, colorectal cancer, 725 mg/m^2 weekly
[16] = Patient 027, ovarian cancer, 725, 675, then 625 mg/m^2 weekly
[17] = Patient 029, breast cancer, 725 mg/m^2 weekly
[18] = Patient 030, ovarian cancer, 725 mg/m^2 weekly
[19] = Patient 032, oesophageal cancer, 750 mg/m^2 weekly
[20] = Patient 033, cholangiocarcinoma, 750 mg/m^2 weekly
[21] = Patient 036, renal carcinoma, 825 then 750 mg/m^2 weekly
[22] = Patient 037, pancreatic cancer, 1,000 then 900 mg/m^2 weekly

C[C@H](NP(=O)(OC[C@H]1O[C@@H](n2ccc(N)nc2=O)C(F)(F)[C@@H]1O)Oc1ccccc1)C(=O)OCc1ccccc1 (stereo partly drawn) [NUC-1031, 2′-deoxy-2′,2′-difluoro-D-cytidine-5′-O-[phenyl (benzoxy-L-alaninyl)] phosphate]
Best response to RECIST [1]: Stable Disease | Duration of response to RECIST [1]: 12 months | Best response to RECIST [2]: Stable Disease | Duration of response to RECIST [2]: 15 months | CA125 level (Patient 005, ovarian cancer, end of Cycle 6 (208 at start of study)): 140 | Best response to RECIST [3]: Stable Disease | Duration of response to RECIST [3]: 3 months | CA19.9 level (Patient 006, cholangiocarcinoma, after two doses (from 125,002)): 59,285 | Adverse events (grade) [4]: thrombocytopaenia (G3) | Best response to RECIST [4]: Stable Disease | Duration of response to RECIST [4]: 3 months | CEA level (Patient 007, colorectal cancer, after treatment (from 361)): 286 | CA19.9 level (Patient 007, colorectal cancer, after treatment (from 3,151)): 2,957 | Adverse events (grade) [5]: transient (G3) transaminitis (ALT and AST) | Best response to RECIST [5]: Stable Disease | Duration of response to RECIST [5]: 3 months | Adverse events (grade) [6]: neutropenia (G3); also recorded: transient Grade 3 anaemia | Best response to RECIST [6]: Stable Disease | Duration of response to RECIST [6]: 9 months | CA125 level (Patient 010, endometrial cancer, after treatment (from 727)): 488 | Adverse events (grade) [7]: transient neutropaenia (G3); also recorded: low haemoglobin (G2) | Reduction in tumour volume [7]: 26% | Best response to RECIST [8]: Stable Disease | Duration of response to RECIST [8]: 4 months | Best response to RECIST [9]: Stable Disease | Duration of response to RECIST [9]: 8 months | Best response to RECIST [10]: Partial Response | Duration of response to RECIST [10]: 9 months | PFS [10]: 11 months | Best response to RECIST (Patient 014, mesothelioma, 750 then 625 mg/m^2 weekly): Progressive Disease | Best response to RECIST (Patient 015, cancer (unknown primary), 750, 625, then 500 mg/m^2 weekly): Partial Response | Reduction in tumour size (Patient 015, cancer (unknown primary), CT scan on 9 Jan. 2015): approximately 58% | Adverse events (grade) (Patient 015, cancer (unknown primary), Cycle 1 Day 8): thrombocytopenia (G3); also recorded: lymphopenia (G3); also recorded: neutropenia (G2) | PFS (Patient 015, cancer (unknown primary), ongoing): ≥ 24 months | Duration of response to RECIST (Patient 015, cancer (unknown primary), ongoing, 750, 625, then 500 mg/m^2 weekly): ≥ 20 months | Best response to RECIST [11]: Partial Response | Duration of response to RECIST [11]: 3 Months | PFS [11]: 10 Months | Best response to RECIST [12]: Stable Disease | Duration of response to RECIST [12]: 4 months | Best overall response [13]: Partial Response | Duration of Partial Response according to GCIG criteria [13]: 9 months | Duration of Partial Response according to RECIST [13]: 3 months | CA125 reduction from baseline (Patient 021, fallopian tube cancer, baseline to end of Cycle 6): 91% | CA125 level (Patient 021, fallopian tube cancer, end of Cycle 6 (baseline 372)): 35 | Best response to RECIST (Patient 024, cancer of unknown primary, 675 mg/m^2 weekly): Progressive Disease | Best response to RECIST [14]: Stable Disease | Duration of response to RECIST [14]: 4 months | Best response to RECIST [15]: Stable Disease | Duration of response to RECIST [15]: 4 months | Adverse events (grade) (Patient 027, ovarian cancer, 725 mg/m^2, following Cycle 1 Day 1, a DLT): elevated ALT (G3) | Best response to RECIST [16]: Stable Disease | Duration of response to RECIST [16]: 8 months | Reduction in tumour volume [16]: 23% | ALT level (Patient 027, ovarian cancer, day 7 after Cycle 1 Day 1 at 725 mg/m^2 (96 at baseline)): 256 U/L | CA125 level (Patient 027, ovarian cancer, end of Cycle 6 (188 at baseline)): 99 | Best response to RECIST [17]: Stable Disease | Duration of response to RECIST [17]: 4 months | Best response to RECIST [18]: Stable Disease | Duration of response to RECIST [18]: 3 months | Best response to RECIST (Patient 031, cholangiocarcinoma, 750 mg/m^2 weekly, end of Cycle 2 CT scan): Progressive Disease | Best response to RECIST [19]: Stable Disease | Duration of response to RECIST [19]: 2 months | Best response to RECIST [20]: Stable Disease | Duration of response to RECIST [20]: 3 months | Adverse events (grade) (Patient 036, renal carcinoma, 825 mg/m^2, following Cycle 5 Day 1): thrombocytopenia (G3) | Best response to RECIST [21]: Stable Disease | Duration of response to RECIST [21]: 5 months | Reduction in tumour volume (Patient 036, renal carcinoma, end of Cycle 4 CT scan): 7% | Best response to RECIST [22]: Partial Response | Duration of response to RECIST [22]: 1 month | PFS [22]: 4 months | Reduction in tumour volume (Patient 037, pancreatic cancer, CT scan on 29 Apr. 2014): 30% | CEA level (Patient 037, pancreatic cancer, after treatment (536 at baseline)): 42 | CA19.9 level (Patient 037, pancreatic cancer, after treatment (15,000 at baseline)): 4,000 | Reduction in tumour volume (Patient 037, pancreatic cancer, end of Cycle 2 CT scan): 18.4% | Best response to RECIST (Patient 038, ovarian cancer, 900 mg/m^2 weekly): Progressive Disease | Increase in tumour volume (Patient 038, ovarian cancer, end of Cycle 2 scan): 25%
